Source: patent publication US12344610B2, “APOL1 inhibitors and methods of use” (Maze Therapeutics, Inc., priority 2022, dated 2025)

How the values were obtained:
Type in all cases: cell-based
[1] = system: HEK293 cells overexpressing APOL1 G2; assay: APOL1 G2 HEK293 cell rescue assay (reversal of cell death caused by overexpression of APOL1); details: geometric mean of at least 2 assay runs, † = single assay run
Protocol: Unless otherwise specified, EC50 values are reported as the geometric mean of at least 2 assay runs on separate days. Each run represents the average of a technical replicate, where each compound was assayed twice in the same plate. A superscript t symbol indicates a value from the average of a technical replicate from a single assay run, where each compound was assayed twice in the same plate. Compounds in Table 40 are referred to by the corresponding Compound Number in Table 1, which is also referred to in the synthetic examples. When one or more of the numbered compounds are identified by stereochemistry (for example, (R)- or (S)-), the specific stereoisomer for which data is provided in Table 40 may be identified by the elution order of such compound as described in the synthetic examples. Absolute stereochemistry of such compounds may be identified by methods known in the art. For Table 40 below, n/a represents “not available”.
Rescue EC50 values reported in Table 40 below represent the half-maximal effective concentration for reversal of cell death caused by overexpression of APOL1.

APOL1 G2 = target: T1, APOL1 G2 (Homo sapiens, UniProt O14791, DEL388-389); assay: APOL1-mediated calcium transport (calcium influx) assay, HEK T-REx/GCaMP6f/APOL1 G2 K6.3 cells, FLIPR TETRA; details: prevention of calcium influx; geometric mean of at least 2 assay runs; † = average of a technical replicate from a single assay run
T1 construct: expressed in transfected cells; host or cells: HEK293 T-REx clonal line stably expressing GCaMP6f (HEK T-REx/GCaMP6f/APOL1 G2 K6.3), doxycycline induced
T1 sequence (O14791 with tags, fused parts or gaps DEL388-389): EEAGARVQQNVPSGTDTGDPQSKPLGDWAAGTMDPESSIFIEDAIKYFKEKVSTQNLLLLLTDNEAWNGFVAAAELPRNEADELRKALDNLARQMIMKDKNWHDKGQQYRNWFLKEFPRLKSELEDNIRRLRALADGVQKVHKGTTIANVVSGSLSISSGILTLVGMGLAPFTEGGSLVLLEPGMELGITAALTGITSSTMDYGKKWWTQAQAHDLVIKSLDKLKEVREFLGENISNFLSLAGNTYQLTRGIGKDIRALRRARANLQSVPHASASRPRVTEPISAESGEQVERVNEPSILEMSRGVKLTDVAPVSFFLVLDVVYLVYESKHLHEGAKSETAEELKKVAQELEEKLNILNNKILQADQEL
Protocol: A HEK293 clonal cell line was generated to stably express GCaMP6f, a genetically encoded calcium indicator, and inducibly express APOL1 G2 (HEK T-REx/GCaMP6f/APOL1 G2 K6.3). Cells were maintained in the following standard complete medium: DMEM with 4.5 g/L glucose and sodium pyruvate (BioWhittaker, Lonza, BE12-614F), supplemented with 10% FBS Performance Plus (Gibco, 16000044), 1% penicillin-streptomycin (BioWhittaker, DE17-602E), 2 mM ultraglutamine-1 (BioWhittaker cat. BE 17-605/U1), 50 μg/mL Zeocin (InvivoGen, ant-zn), 2.5 μg/mL Blasticidin (InvivoGen, ant-bl-5), and 25 μg/mL Hygromycin (InvivoGen, ant-hg). Standard propagation conditions consisted of plating 9×10^6, 4×10^6, 2×10^6 cells in a T225 flasks to be processed after 2, 3, or 4 days, respectively.
A source plate was generated containing 20 serially diluted compounds in DMSO (duplicate 8-point dose response). Next, 0.8 μL of compounds were transferred from the source plate to a destination plate prefilled with 79.2 μL of Ca^2+ free Tyrode's buffer (130 mM NaCl, 5 mM KCl, 1 mM MgCl2, 5 mM NaHCO3, 20 mM HEPES at pH 7.4). The destination plate was placed on a plate shaker (5 seconds at 2000 rpm) to mix. […] All transfer and mixing steps were conducted with an CyBi®-Well dispenser.
Cells were split by gently washing with DPBS (Euroclone, ECB4004L), followed by a 5-minute incubation (humidified, 37° C. with 5% CO2) with trypsin-EDTA solution (Euroclone, ECB3052D). Detached cells were diluted with standard complete medium without selective agents, counted, and plated in a 384 MTP microplate (GR4332CPL, Twin Helix) (10,000 cells/well in 25 μl/well) using a MATRIX WellMate dispenser. Plates were placed into a humidified incubator (37° C. with 5% CO2) overnight. The following day, 20 μL of doxycycline (Sigma, D9891) at 20 ng/mL in standard complete medium was added to cells with a CyBi® Drop dispenser to induce APOL1 G2 expression. After a 6-hour incubation (humidified, 37° C. with 5% CO2), cells were washed 3 times with Ca^2+ free Tyrode's Buffer (130 mM NaCl, 5 mM KCl, 1 mM MgCl2, 5 mM NaHCO3, 20 mM HEPES at pH 7.4) using a BIOTEK Microplate washer, such that 10 μL of buffer remained in each well after the final wash. Assay plates were then stored at room temperature for 10 minutes. Next, 10 μL of diluted compounds were transferred to the assay plate from the 2× compound plate using a CyBi®-Well dispenser. Compound incubation was then carried out at room temperature for 10 minutes. The assay plate was transferred to the FLIPR^TETRA and 20 μL of 10 mM Ca^2+ (final concentration=5 mM) Tyrode's buffer was injected.
Unless otherwise specified, AC50 and values are reported as the geometric mean of at least 2 assay runs on separate days. Each run represents the average of a technical replicate, where each compound was assayed twice in the same plate. A superscript t symbol indicates a value from the average of a technical replicate from a single assay run, where each compound was assayed twice in the same plate.
The AC50 values in Table 39 below reflect the compound's ability to prevent calcium influx by inhibiting APOL1. […] Compounds in Table 39 are referred to by the corresponding Compound Number in Table 1, which is also referred to in the synthetic examples. When one or more of the numbered compounds are identified by stereochemistry (for example, (R)- or (S)-), the specific stereoisomer for which data is provided in Table 39 may be identified by the elution order of such compound as described in the synthetic examples. For example, Compounds 39 and 40 are associated with Step 5 of Example 13, where Compound 39 is the first eluting enantiomer, and Compound 40 is the second eluting enantiomer in the chiral separation of Compound 38. For Table 39 below, n/a represents “not available”.

[2] = system: HEK293 clonal cell line overexpressing APOL1 G1; assay: APOL1 G1 HEK293 cell rescue assay (Example B3); details: geometric mean of at least 2 runs, † = single run, ¥ = concentration at 50% rescue estimated (no sigmoidal curve)
Protocol: Compounds were also assayed in a HEK293 clonal cell line overexpressing APOL1 G1 by a method similar to that shown in Example B2 above.
Unless otherwise specified, EC50 values are reported as the geometric mean of at least 2 assay runs on separate days. Each run represents the average of a technical replicate, where each compound was assayed twice in the same plate. A superscript † symbol indicates a value from the average of a technical replicate from a single assay run, where each compound was assayed twice in the same plate. A ¥ symbol represents compound concentration at 50% rescue estimated due to lack of sigmoidal curve preventing curve fitting. Compounds in Table 41 are referred to by the corresponding Compound Number in Table 1, which is also referred to in the synthetic examples. When one or more of the numbered compounds are identified by stereochemistry (for example, (R)- or (S)-), the specific stereoisomer for which data is provided in Table 41 may be identified by the elution order of such compound as described in the synthetic examples. Absolute stereochemistry of such compounds may be identified by methods known in the art. For Table 41 below, n/a represents “not available”.
Rescue EC50 values reported in Table 41 below represent the half-maximal effective concentration for reversal of cell death caused by overexpression of APOL1.

[3] = Homo sapiens, HEK293, HEK293 overexpressing APOL1 G2
[4] = Homo sapiens, HEK293, HEK293 clonal line overexpressing APOL1 G1
[5] = HEK293 clonal line overexpressing APOL1 G1

Structure (SMILES): CC(COc1ccc(S(C)(=O)=O)cc1)N1CCC2(CC1)C(=O)N(C1CC(O)C1)c1ccc(Cl)cc12 (mixture of isomers) [Compound 205, 5-chloro-1′-[1-(4-methanesulfonylphenoxy)propan-2-yl]-1-[3-hydroxycyclobutyl]-1,2-dihydrospiro[indole-3,4′-piperidin]-2-one]
- EC50 [1, 3]: 472 nM
- AC50 (APOL1 G2): 1220 nM
- EC50 [2, 4]: 1760 nM

Structure (SMILES): C[C@@H](CN1CCC2(CC1)C(=O)Nc1ccc(Cl)cc12)Oc1ccc(S(C)(=O)=O)cc1 (single isomer, unassigned) [Compound 11]
- EC50 [1, 3]: 1700 nM
- AC50 (APOL1 G2): 1050 nM
- EC50 [2, 4]: 2300 nM

Structure (SMILES): CC(c1ccc(OCCN2CCC3(CC2)C(=O)Nc2ccc(Cl)cc23)cc1)S(C)(=O)=O (single isomer, unassigned) [Compound 40, 5-chloro-1′-(2-{4-[(1R) or (1S)-1-methanesulfonylethyl]phenoxy}ethyl)-1,2-dihydrospiro[indole-3,4′-piperidin]-2-one]
- EC50 ([1]; HEK293 overexpressing APOL1 G2): 72 nM
- AC50 (APOL1 G2): 657 nM
- EC50 [2, 5]: 294 nM

Structure (SMILES): N#Cc1ccc2c(c1)C1(CCN(CCOc3ccc4c(c3)CCN3C(=O)NCC43)CC1)C(=O)N2 (single isomer, unassigned) [Compound 119, (S) or (R)-2-oxo-1′-[2-({3-oxo-1H,2H,3H,5H,6H,10bH-imidazo[4,3-a]isoquinolin-8-yl}oxy)ethyl]-1,2-dihydrospiro[indole-3,4′-piperidine]-5-carbonitrile]
- EC50 [1, 3]: 435 nM
- AC50 (APOL1 G2): 1010 nM
- EC50 [2, 4]: ~3400 nM

Structure (SMILES): N#Cc1ccc2c(c1)C1(CCN(CCOc3ccc4c(c3)CCN3C(=O)CCC43)CC1)C(=O)N2 (single isomer, unassigned) [Compound 125, (S) or (R)-2-oxo-1′-[2-({3-oxo-1H,2H,3H,5H,6H,10bH-pyrrolo[2,1-a]isoquinolin-8-yl}oxy)ethyl]-1,2-dihydrospiro[indole-3,4′-piperidine]-5-carbonitrile]
- EC50 [1, 3]: 355 nM
- AC50 (APOL1 G2): 729 nM
- EC50 [2, 5]: > 4860 nM

Structure (SMILES): N#Cc1ccc2c(c1)C1(CCN(CCOc3ccc4c(c3)CCN3C(=O)CCC43)CC1)C(=O)N2 (single isomer, unassigned) [Compound 126, (R) or (S)-2-oxo-1′-[2-({3-oxo-1H,2H,3H,5H,6H,10bH-pyrrolo[2,1-a]isoquinolin-8-yl}oxy)ethyl]-1,2-dihydrospiro[indole-3,4′-piperidine]-5-carbonitrile]
- EC50 ([1]; HEK293 overexpressing APOL1 G2): 273 nM
- AC50 (APOL1 G2): 624 nM
- EC50 [2, 5]: 1010 nM

Structure (SMILES): CC(COc1ccc2c(c1)CCC(=O)N2C)N1CCC2(CC1)C(=O)Nc1ccc(Cl)cc12 (single isomer, unassigned) [Compound 201, chloro-1′-[(2R) or (2S)-1-[(1-methyl-2-oxo-1,2,3,4-tetrahydroquinolin-6-yl)oxy]propan-2-yl]-1,2-dihydrospiro[indole-3,4′-piperidin]-2-one]
- EC50 ([1]; HEK293 overexpressing APOL1 G2): 609 nM
- AC50 (APOL1 G2): 909 nM
- EC50 [2, 5]: 4920 nM

Structure (SMILES): CC(COc1ccc2c(c1)CCC(=O)N2C)N1CCC2(CC1)C(=O)Nc1ccc(C#N)cc12 (single isomer, unassigned) [Compound 204, (R) or (S)-1′-{1-[(1-methyl-2-oxo-1,2,3,4-tetrahydroquinolin-6-yl)oxy]propan-2-yl}-2-oxo-1,2-dihydrospiro[indole-3,4′-piperidine]-5-carbonitrile]
- EC50 ([1]; HEK293 overexpressing APOL1 G2): 1550 nM
- AC50 (APOL1 G2): 869 nM
- EC50 [2, 5]: 1270 nM

Structure (SMILES): C[C@]1(O)C[C@@H](n2c(=O)cc(C(F)(F)F)c3cc(OCCN4CCC5(CC4)C(=O)Nc4ccc(Cl)cc45)cnc32)C1 [Compound 341, 5-chloro-1′-[2-({7-oxo-8-[(cis)-3-hydroxy-3-methylcyclobutyl]-5-(trifluoromethyl)-7,8-dihydro-1,8-naphthyridin-3-yl}oxy)ethyl]-1,2-dihydrospiro[indole-3,4′-piperidin]-2-one]
- EC50 [1, 3]: 41.5 nM
- AC50 (APOL1 G2): 1060 nM

Structure (SMILES): C[C@]1(O)C[C@@H](n2c(=O)cc(C(F)(F)F)c3cc(OCCN4CCC5(CC4)C(=O)Nc4ccc(C(F)F)cc45)cnc32)C1 [Compound 342, 5-(difluoromethyl)-1′-[2-({7-oxo-8-[(cis)-3-hydroxy-3-methylcyclobutyl]-5-(trifluoromethyl)-7,8-dihydro-1,8-naphthyridin-3-yl}oxy)ethyl]-1,2-dihydrospiro[indole-3,4′-piperidin]-2-one]
- EC50 [1, 3]: 90.2 nM
- AC50 (APOL1 G2): 780 nM

Structure (SMILES): C[C@]1(O)C[C@@H](n2cnc3cc(OCCN4CCC5(CC4)C(=O)Nc4ccc(C#N)cc45)cc(F)c32)C1 [Compound 455, 1′-(2-((7-fluoro-1-((cis)-3-hydroxy-3-methylcyclobutyl)-1H-benzo[d]imidazol-5-yl)oxy)ethyl)-2-oxospiro[indoline-3,4′-piperidine]-5-carbonitrile]
- EC50 [1, 3]: 75.3 nM
- AC50 (APOL1 G2): 1250 nM
